# Results reported in patent EP1161410B1, “RETINOID ANTAGONISTS AND USE THEREOF” (Basilea Pharmaceutica AG, priority 1999, dated 2000).
# Tests used:
# IL-12 = IL-12 production by activated monocytes (SAC + IFN-γ), ELISA; format: cell-based, human; details: SAC+IFN-γ alone 120-126 pg/ml
# Method: THP-1 cells were obtained from American Tissue Culture Collection and cultured in complete medium. […] Exp. Med. 183, 147-157 (1996)]. […] Supernatants were collected after 48 hours and freezed at -20 °C until assayed [[…]-Bordignon et al., J. Clin. Invest. 100, 1513-1519 (1997)]. […] Clin. Invest. 93, 1733-1739 (1994)]. […] Absorbance was read at 450-650 nm. The unknown IL-12 concentrations of the samples were read from the corresponding standard curve and multiplied by the corresponding dilution factor. […] Serial dilutions (1 μM-1 pM) were prepared in complete RPMI medium. 10 μl of each dilution was added to 1 ml culture.
# [1] = system: airway inflammatory cell accumulation; assay: Murine model of allergen-induced airway inflammation: airway inflammatory cell accumulation; format: in vivo, C57BL/6 mice; details: for Cell Influx, Total leukocytes: vehicle 795000; for Cell Influx, Eosinophils: vehicle 335000; for Cell Influx, Macrophages: vehicle 443000
# Method: Murine model of allergen-induced airway inflammation and hyperresponsiveness.
# C57BL/6 mice (8-9 weeks old) are actively sensitized to ovalbumin (OA) on day 0 and on day 14 by a intraperitoneal injection of 10 µg OA + 1 mg Al(OH)3 (gel suspension) in 0.2 ml sterile saline. On day 21, the mice were challenged with 5.0 % OA aerosol for 18 minutes. The aerosol is generated by a De Vilbiss Ultra-Neb 90 ultrasonic nebulizer, the outlet of which is connected to a small plexiglass chamber containing the animals. The mice are dosed with the RXR antagonist Compound B (10 and 30 mg/kg intraperitoneally) daily for three days, 48 hours, 24 hours, and immediately prior to OA challenge. Animals are used on […].
# Airway Inflammatory Cell Accumulation: On day 24, three days after the challenge with OA aerosol, animals are anesthetized with urethane (2.4 g/kg) and tracheotomized with a 23 gauge catheter. Lungs are lavaged with aliquots (2 x 1 ml) of sterile Hank's balanced salt solution without Ca^++ and Mg^++. Lavage fluid is recovered after 30 sec by gentle aspiration and pooled for each animal. Samples then are centrifuged at 2000 rpm for 15 minutes at 5 °C. Red blood cells are lysed from the resulting pellet with 0.5 ml distilled water and the cells remaining in the pellet are reconstituted with 5 ml HBSS. Samples are centrifuged a second time at 2000 rpm for 15 minutes at 5 °C. The resulting pellet is suspended in 1 ml of HBSS. Total cell number is determined from an aliquot of the cell suspension using a hemocytometer. For cytological preparations, the cells are fixed on cytocentrifuged slides stained with a modified Wright's stain. Differential counts on at least 300 cells are made using standard morphological criteria to classify cells.
# [2] = Clinical trial, topical treatment of precancerous lesions of the skin (multiple actinic keratoses); format: in vivo, human; details: cream 1 % twice daily
# Excerpt: Efficacy of topical application of Compound B in the treatment of precancerous lesions of the skin (multiple actinic keratoses)
# In a clinical trial, a cream containing 1 % of Compound B was applied on the lesions twice daily without occlusive dressing. […]
# [3] = Patient I, both forearms, 4 months
# [4] = Patient IV, face and back of both hands, 3 months
structure (smiles),measurement,setting,value
"CCCCCCCOc1cc2c(cc1/C(C)=C/c1ccc(C(=O)O)cc1)C(C)(C)CCS2(=O)=O [Compound H, p-[(E)-2-[3',4'-Dihydro-4',4'-dimethyl-7'-(beptyloxy)-2'H-1-benzothiopyran-6'-yl]propenyl]benzoic acid 1',1'-dioxide]",IL-12,IL-12; antagonist 100 nM,102 pg/mL
same,IL-12,IL-12; antagonist 1000 nM,251 pg/mL
"CCCCOc1c(\C(C)=C/C=C/C(C)=C/C(=O)O)cc(C(C)(C)C)cc1C(C)(C)C [Compound B, (2E,4E,6Z)-7-(3,5-di-tert.butyl-2-butyloxyphenyl]-3-methyl-2,4,6-octatrienoic acid]",IL-12,IL-12; antagonist 10 nM,106 pg/mL
same,IL-12,IL-12; antagonist 100 nM,161 pg/mL
same,IL-12,IL-12; antagonist 1000 nM,298 pg/mL
same,"Percent of reduction, Eosinophils",[1]; 10 mg/kg intraperitoneally,48%
same,"Percent of reduction, Macrophages",[1]; 10 mg/kg intraperitoneally,35%
same,"Percent of reduction, Total leukocytes",[1]; 10 mg/kg intraperitoneally,39%
same,"Cell Influx, Total leukocytes",[1]; 10 mg/kg intraperitoneally daily for three days,488000 cells/ml
same,"Cell Influx, Eosinophils",[1]; 10 mg/kg intraperitoneally,176000 cells/ml
same,"Cell Influx, Macrophages",[1]; 10 mg/kg intraperitoneally,289000 cells/ml
same,"Percent of reduction, Eosinophils",[1]; 30 mg/kg intraperitoneally,73%
same,"Percent of reduction, Macrophages",[1]; 30 mg/kg intraperitoneally,62%
same,"Percent of reduction, Total leukocytes",[1]; 30 mg/kg intraperitoneally,66%
same,"Cell Influx, Total leukocytes",[1]; 30 mg/kg intraperitoneally daily for three days,271000 cells/ml
same,"Cell Influx, Eosinophils",[1]; 30 mg/kg intraperitoneally,91000 cells/ml
same,"Cell Influx, Macrophages",[1]; 30 mg/kg intraperitoneally,172000 cells/ml
same,Adverse Events (particularly irritation of lesions and surrounding skin),[2]; [3],none
same,Improvement,[2]; [3],marked
same,Reduction in Size of Lesions,"[2]; Patient I, m, 53 years, both forearms, 4 months",50%
same,Adverse Events (particularly irritation of lesions and surrounding skin),"[2]; Patient II, face, 6 weeks",none
same,Improvement,"[2]; Patient II, face, 6 weeks",slight
same,Reduction in Size of Lesions,"[2]; Patient III (person two), face, 4 months",30%
same,Adverse Events (particularly irritation of lesions and surrounding skin),"[2]; Patient III, face, 4 months",none
same,Improvement,"[2]; Patient III, face, 4 months",moderate
same,Adverse Events (particularly irritation of lesions and surrounding skin),[2]; [4],none
same,Improvement,[2]; [4],moderate
same,Adverse Events (particularly irritation of lesions and surrounding skin),"[2]; Patient V, face, 2 months",none
same,Improvement,"[2]; Patient V, face, 2 months",no
same,Reduction in Size of Lesions,"[2]; Patient V, m, 74 years, face, 2 months",0%
